{
  "source": "PubChem BioAssay AID330",
  "about": "(DTP/NCI, 2004)",
  "test_system": "P388 leukemia ip, CD2F1 mice, survival T/C",
  "assay": "NCI In Vivo Anticancer Drug Screen. Data for tumor model P388 Leukemia (intraperitoneal) in CD2F1 (CDF1) mice",
  "details": "endpoint: median survival time, higher = longer survival",
  "outline": "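Mice carrying the transplanted tumor received test compound or vehicle. Survival was recorded in each group, and the value is the treated-group measurement divided by that of the vehicle-treated control group.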",
  "key": {"[1]": {"details": "dose: 50.0 mg/kg/injection, schedule: Q01DX009 (ip), vehicle: Klucel (hydroxypropylcellulose) (HPC)"}, "[2]": {"details": "dose: 100.0 mg/kg/injection, schedule: Q01DX009 (ip), vehicle: Klucel (hydroxypropylcellulose) (HPC)"}, "[3]": {"details": "dose: 200.0 mg/kg/injection, schedule: Q01DX009 (ip), vehicle: Klucel (hydroxypropylcellulose) (HPC)"}},
  "note": "Inconclusive results and toxic doses are left out.",
  "data": [
    {"smiles": "Cc1c(-c2ccccc2)[nH]c2cc3c(cc12)Oc1ccccc1O3", "values": [
      {"measurement": "T/C", "setting": "dose: 17.5 mg/kg/injection, schedule: Q01DX009 (ip), vehicle: Klucel (hydroxypropylcellulose) (HPC)", "result": "101 % of control"},
      {"measurement": "T/C", "setting": "dose: 35.0 mg/kg/injection, schedule: Q01DX009 (ip), vehicle: Klucel (hydroxypropylcellulose) (HPC)", "result": "106 % of control"},
      {"measurement": "T/C", "setting": "dose: 70.0 mg/kg/injection, schedule: Q01DX009 (ip), vehicle: Klucel (hydroxypropylcellulose) (HPC)", "result": "105 % of control"}
    ]},
    {"smiles": "CN(N=O)C(=O)NCCNC(=O)C1OC(n2ccc(=O)[nH]c2=O)C(O)C1O", "note": "(centres undefined)", "values": [
      {"measurement": "T/C", "setting": "dose: 100.0 mg/kg/injection, schedule: Q01DX009 (ip), vehicle: saline", "result": "108 % of control"}
    ]},
    {"smiles": "Cc1nc2ncn(-c3ccccc3)c2c(=O)n1-c1cccnc1", "values": [
      {"measurement": "T/C", "setting": "dose: 50.0 mg/kg/injection, schedule: Q01DX005 (ip), vehicle: Klucel (hydroxypropylcellulose) (HPC)", "result": "105 % of control"},
      {"measurement": "T/C", "setting": "dose: 100.0 mg/kg/injection, schedule: Q01DX005 (ip), vehicle: Klucel (hydroxypropylcellulose) (HPC)", "result": "110 % of control"},
      {"measurement": "T/C", "setting": "dose: 200.0 mg/kg/injection, schedule: Q01DX005 (ip), vehicle: Klucel (hydroxypropylcellulose) (HPC)", "result": "110 % of control"}
    ]},
    {"smiles": "CC(C)C[C@H](O)C(=O)O", "values": [
      {"measurement": "T/C", "setting": "dose: 50.0 mg/kg/injection, schedule: Q04DX003 (ip), vehicle: saline", "result": "100 % of control"},
      {"measurement": "T/C", "setting": "dose: 100.0 mg/kg/injection, schedule: Q04DX003 (ip), vehicle: saline", "result": "100 % of control"},
      {"measurement": "T/C", "setting": "dose: 200.0 mg/kg/injection, schedule: Q04DX003 (ip), vehicle: saline", "result": "100 % of control"}
    ]},
    {"smiles": "CCCCCCCCCCCCCCCCCCOP(=O)(CC(=O)NCc1cc(C(C)(C)C)c(O)c(C(C)(C)C)c1)OCCCCCCCCCCCCCCCCCC", "values": [
      {"measurement": "T/C", "setting": "dose: 12.5 mg/kg/injection, schedule: Q04DX003 (ip), vehicle: saline with Tween-80", "result": "96 % of control"},
      {"measurement": "T/C", "setting": "dose: 25.0 mg/kg/injection, schedule: Q04DX003 (ip), vehicle: saline with Tween-80", "result": "101 % of control"},
      {"measurement": "T/C", "setting": "dose: 50.0 mg/kg/injection, schedule: Q04DX003 (ip), vehicle: saline with Tween-80", "result": "92 % of control"},
      {"measurement": "T/C", "setting": "dose: 100.0 mg/kg/injection, schedule: Q04DX003 (ip), vehicle: saline with Tween-80", "result": "86 % of control"},
      {"measurement": "T/C", "setting": "dose: 200.0 mg/kg/injection, schedule: Q04DX003 (ip), vehicle: saline with Tween-80", "result": "100 % of control"}
    ]},
    {"smiles": "O=[N+]([O-])c1ccccc1N=NNc1ccccc1", "values": [
      {"measurement": "T/C", "setting": "[1]", "result": "95 % of control"},
      {"measurement": "T/C", "setting": "[2]", "result": "91 % of control"},
      {"measurement": "T/C", "setting": "[3]", "result": "104 % of control"}
    ]},
    {"smiles": "CC(=O)OC1N(C(C)=O)C(SC23CC4CC(CC(C4)C2)C3)C(C)=CC1(C)OC(C)=O", "note": "(centres undefined)", "values": [
      {"measurement": "T/C", "setting": "[1]", "result": "111 % of control"},
      {"measurement": "T/C", "setting": "[2]", "result": "110 % of control"},
      {"measurement": "T/C", "setting": "[3]", "result": "105 % of control"}
    ]},
    {"smiles": "Cc1cc(NCCc2ccccc2)cc(=O)n1CCc1ccccc1", "values": [
      {"measurement": "T/C", "setting": "dose: 60.0 mg/kg/injection, schedule: Q01DX005 (ip), vehicle: Klucel (hydroxypropylcellulose) (HPC)", "result": "97 % of control"},
      {"measurement": "T/C", "setting": "dose: 120.0 mg/kg/injection, schedule: Q01DX005 (ip), vehicle: Klucel (hydroxypropylcellulose) (HPC)", "result": "100 % of control"},
      {"measurement": "T/C", "setting": "dose: 240.0 mg/kg/injection, schedule: Q01DX005 (ip), vehicle: Klucel (hydroxypropylcellulose) (HPC)", "result": "94 % of control"}
    ]},
    {"smiles": "O=P(N1CC1)(N1CC1)N1CC1", "values": [
      {"measurement": "T/C", "setting": "dose: 3.0 mg/kg/injection, schedule: Q01DX009 (ip), vehicle: saline", "result": "216 % of control"}
    ]},
    {"smiles": "CN(C)CCCN1c2ccccc2Sc2ccccc21", "values": [
      {"measurement": "T/C", "setting": "dose: 18.75 mg/kg/injection, schedule: Q01DX009 (ip), vehicle: saline with Tween-80", "result": "111 % of control"},
      {"measurement": "T/C", "setting": "dose: 18.75 mg/kg/injection, schedule: Q01DX009 (ip), vehicle: saline", "result": "112 % of control"},
      {"measurement": "T/C", "setting": "dose: 37.5 mg/kg/injection, schedule: Q01DX009 (ip), vehicle: saline with Tween-80", "result": "123 % of control"},
      {"measurement": "T/C", "setting": "dose: 37.5 mg/kg/injection, schedule: Q01DX009 (ip), vehicle: saline", "result": "109 % of control"}
    ]}
  ]
}
